{"source": "patent US6638974B1", "about": "“Ascorbyl esters for the treatment of cancer” (University of South Florida, priority 1999, dated 2003)", "key": {"PC-1 cells": {"system": "PC-1 cells", "assay": "MTT cell growth and viability assay, PC-1", "format": "cell-based, hamster", "details": "different concentrations of Asc-S, 24 hours", "description": "Cell Growth and Vitality: The effect of Asc-S on PANC-1 and PC-1 cell growth and viability was evaluated by 3-(4,5-dimethylthiazol-2yl)-2,5-diphenyl-tetrazoliumbromide (MTT) (Sigma Chemical Co., St. Louis, Md.) assay and the details of the procedure are as described earlier (Naidu et al., 1993a) PANC-1 cells were seeded at 2.5×10^4 viable cells well in 0.1 ml MEM supplemented with 10% FBS or serum free MEM with 15 nM human recombinant IGF-1 in 96 multiwell tissue culture plates. The following day when the cells were nearly confluent, the medium was replaced with fresh medium and 50, 75, 100, 125, 150, 175 and 200 μM Asc-S were added and incubated in a CO2 incubator at 37° C. for 24 hours with respective untreated controls.\nThe effect of Asc-S on the proliferation of PC-1 and PANC-1 pancreatic tumor cells was studied using MTT assay. The expression of IGF1-R was analyzed by Western blot analysis, using polyclonal IGF1-R antibody (Upstate Biotech). Apoptosis was assessed by in situ hybridization using TUNEL reaction. […] This was associated with significant decrease in IGF1-R expression and increased apoptotic rate as compared to the control. Statistical analysis on the MTT assay was done using Student's T-test."}, "T98G cells [1]": {"system": "T98G cells", "assay": "MTT cell proliferation assay, T98G", "format": "cell-based, human", "details": "for inhibition at 50 µM / inhibition at 100 µM / inhibition at 175 µM: Homo sapiens, T98G", "description": "T98G cell proliferation: Murine (G26) and human glioma (U-373) cell proliferation was inhibited following exposure to ascorbyl esters (Naidu et al., 1993a and 1993b). The cell proliferation was assessed by [^3H] thymidine incorporation and MTT assay (Naidu et al., 1993a, 1993b and 1996). […] The T98G cells were cultured for 24 hours in MEM+10% FBS, and, when confluent, were treated with 0 (untreated control), 50, 75, 100, 125, 150 and 175 μM Asc-S. Appropriate untreated controls were included. The cell proliferation was measured by MTT assay."}, "T98G cells [2]": {"system": "T98G cells", "assay": "Cell multiplication cycle, T98G", "format": "cell-based, human", "details": "50-175 μM Asc-S", "excerpt": "Human glioma cell proliferation and tumorigrenicity are under autocrine control of the insulin like growth factor 1 (IGF-1) and its receptor (IGF-1R). Although it has been known for quite some time that ascorbic acid and its derivatives have anti-proliferative effects on various tumor cells, the precise mechanism of action is unknown. This study presents data on Ascorbyl Stearate (Asc-S) […] glioma (T98G) cell proliferation and transformation. Asc-S inhibited 10% fetal bovine serum (FBS) and human recombinant IGR-1 ([…]) dependent T98G cell proliferation in a dose dependent manner. […] The inhibition of IGF-1 Rs was also time and dose dependent."}, "[3]": {"system": "OVCAR-3 and PANC-1 s.c. tumors", "assay": "s.c. OVCAR-3 and PANC-1 tumors in BALB/c nude mice", "format": "in vivo, mouse", "details": "100 mg/Kg s.c. daily for two weeks", "description": "The experimental approach is to test effect of Ascorbyl stearate (Asc-S) on the tumorigenicity of ovarian and pancreatic tumor cells. Procedures involve culturing OVCOR-3 (ovarian cancer cells) and PANC-1 (pancreatic cancer cells). When confluent, cells were trypsinized, washed and resuspended in sterile phosphate buffered solution ([…]) in a volume of 0.1 ml and injected s.c. above the hind leg of the mice. Two groups each for OVCOR-3 and PANC-1 tumor cells were established.\nAsc-S is lipophilic compound. Asc-S was dissolved in a small volume of ethyl alcohol and then reconstituted in sterile normal saline. The final concentration of ethyl alcohol was ˜5%. At that concentration ethyl alcohol would not have any deleterious effect. […] The controls received […] of a mixture of 0.5:10 ethyl alcohol and sterile normal saline.\nGroup 1 is made up of OVCAR-3 cells plus Vehicle. A mixture of 0.5:10 of ethyl alcohol and normal saline was used as the vehicle. Group 2 is made up of OVCAR-3 cells plus Asc-S at a concentration of 100 mg/Kg was administered subcutaneously at the vicinity of the s.c. tumor one week prior to treatment with Asc-S. The Asc-S was distributed in a small volume of ethyl alcohol and then reconstituted into normal saline. […]\nFor the preliminary studies, six mice per group were used. […] The s.c. tumors were isolated, tumor sizes were measured and processed for pathological evaluation. […]"}}, "data": [{"compound": "CCCCCCCCCCCCCCCCCC(=O)OC[C@H](O)[C@H]1OC(=O)C(O)=C1O", "note": "[Asc-S, Ascorbyl stearate]", "values": [{"measurement": "PC-1 cell proliferation (MTT assay)", "setting": "PC-1 cells", "value": "dose dependent inhibition of PC-1 cell proliferation"}, {"measurement": "T98G cell proliferation (MTT assay)", "setting": "T98G cells [1]; 50-175 μM Asc-S, 24 hours", "value": "inhibited cell proliferation in a dose dependent manner"}, {"measurement": "inhibition at 50 µM", "setting": "T98G cells [1]; cultured with FBS, 50 μM", "value": 8.7, "unit": "%"}, {"measurement": "inhibition at 100 µM", "setting": "T98G cells [1]; cultured with FBS, 100 μM", "value": 38.5, "unit": "%"}, {"measurement": "inhibition at 175 µM", "setting": "T98G cells [1]; cultured with FBS, 175 μM", "value": 87.2, "unit": "%"}, {"measurement": "inhibition at 50 µM", "setting": "T98G cells [1]; with IGF-1, 50 μM", "value": 15.3, "unit": "%"}, {"measurement": "inhibition at 100 µM", "setting": "T98G cells [1]; with IGF-1, 100 μM", "value": 54.2, "unit": "%"}, {"measurement": "inhibition at 175 µM", "setting": "T98G cells [1]; with IGF-1, 175 μM", "value": 87.7, "unit": "%"}, {"measurement": "cell multiplication cycle, T98G", "setting": "T98G cells [2]", "value": "arrest of cell multiplication cycle in G1/Go phase"}, {"measurement": "apoptotic cells in s.c. tumors (pathological evaluation)", "setting": "[3]", "value": "predominantly higher percentage of apoptotic cells"}, {"measurement": "decrease in the size of the tumors compared to untreated controls", "setting": "[3]", "value": 70, "unit": "%"}]}]}
